Data on 9 molecules can be found in patent publication US20250296971A1, “GASTRIC INHIBITORY PEPTIDE RECEPTOR LIGANDS” (priority 2021, published 2025).

The structures appear in SMILES notation. *1 amine or outer side, *2 acyl side, *3 side chain or, on linkers, in order; H or OH if unused. Where a SMILES comes first, the peptide text is derived from it. Bridges are numbered along the chain shown (N, C = ends). [ ]: non-standard residue; d: D form. The star is where a group is joined. X14 = NC(=O)[C@H](CCCCNC(=O)CN1CCN2CCN3CCN(CC1)CC(=O)[O][In]([O]C(=O)C2)[O]C(=O)C3)NC(=O)CCC(=O)NCCCOCCOCCOCCCN*; X16 = NC(=O)[C@H](CCCCNC(=O)CN1CCN2CCN3CCN(CC1)CC(=O)[O][Lu]([O]C(=O)C2)[O]C(=O)C3)NC(=O)CCC(=O)NCCCOCCOCCOCCCN*; X13 = O=C(CN1CCN2CCN3CCN(CC1)CC(=O)[O][Lu]([O]C(=O)C2)[O]C(=O)C3)NCCCOCCOCCOCCCN*; DOTA(In) = O=C1CN2CCN3CCN(CC(=O)*)CCN(CC2)CC(=O)[O][In]([O]1)[O]C(=O)C3; DOTA(Lu) = O=C1CN2CCN3CCN(CC(=O)*)CCN(CC2)CC(=O)[O][Lu]([O]1)[O]C(=O)C3; Trp(5-Cl) = N[C@@H](Cc1c[nH]c2ccc(Cl)cc12)C(=O)O; Pyridine(2,6-diCH2) = c1cc(C[*:1])nc(C[*:2])c1; 1Nal = N[C@@H](Cc1cccc2ccccc12)C(=O)O; mXylylene = c1cc(C[*:1])cc(C[*:2])c1; X6 = c1cc(CSCCN[*:2])nc(C[*:1])c1; Hyp = O=C(O)[C@@H]1C[C@@H](O)CN1; X1 = O=C(CN1CCC(N[*:1])CC1)[*:2]; Suc = O=C(CCC(=O)[*:2])[*:1]; Ac6c = NC1(C(=O)O)CCCCC1; Api = NC1(C(=O)O)CCNCC1; Thp = NC1(C(=O)O)CCOCC1; Aib = CC(C)(N)C(=O)O

For one assay, the target named is T1, GIPR (CHO-K1-hGIPR cells) (Homo sapiens, UniProt P48546).
T1 construct: host or cells: CHO-K1
T1 sequence (P48546 22-466): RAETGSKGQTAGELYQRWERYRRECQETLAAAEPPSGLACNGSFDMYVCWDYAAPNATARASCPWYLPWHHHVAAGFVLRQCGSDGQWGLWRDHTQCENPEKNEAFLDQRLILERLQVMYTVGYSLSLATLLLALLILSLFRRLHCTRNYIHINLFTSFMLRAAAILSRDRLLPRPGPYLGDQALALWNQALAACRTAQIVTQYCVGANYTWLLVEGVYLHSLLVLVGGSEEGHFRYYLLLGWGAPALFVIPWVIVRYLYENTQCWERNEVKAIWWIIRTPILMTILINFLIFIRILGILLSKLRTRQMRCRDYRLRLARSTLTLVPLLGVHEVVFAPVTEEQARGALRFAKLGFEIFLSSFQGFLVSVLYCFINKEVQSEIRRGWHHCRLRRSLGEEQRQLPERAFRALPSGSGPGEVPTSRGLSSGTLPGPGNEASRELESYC
Description: FACS binding assay. The conditions noted are these: competition with 20 nM GIP-057, 4° C., 1 hour, read-out: pIC50 Category (converted). The essentials:
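Read-out: flow cytometric median fluorescence intensity, APC/Cy5 channel, plotted vs peptide conc.; 4PL fit → EC50/pEC50 or IC50/pIC50. Cells: CHO-K1-hGIPR, Accutase-detached, 500.000/mL in PBS + 1% FCS. Detection: APC-streptavidin 1 μg/mL, 30 min, on ice.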
`CC[C@H](C)[C@@H]1NC(=O)[C@H](CC(C)C)NC(=O)C(C)(C)NC(=O)[C@@H](NC(=O)[C@@H](CC(C)C)NC(=O)[C@H](CCC(=O)O)NC(=O)[C@@H]2CCCN2C(=O)[C@H](Cc2c[nH]c3ccc(Cl)cc23)NC(=O)[C@H](Cc2c[nH]c3ccccc23)NC(=O)[C@H](CC(=O)O)NC(C)=O)CSCc2cccc(c2)CSC[C@@H](C(=O)NCCCOCCOCCOCCCNC(=O)CCC(=O)N[C@@H](CCCCNC(=O)CN2CCN3CCN4CCN(CC2)CC(=O)[O][In]([O]C(=O)C3)[O]C(=O)C4)C(N)=O)NC1=O` [GIP-164, Ac-Asp-Trp-5Clw-Pro-Glu-leu-[Cys(3MeBn)-Aib-Leu-Ile-Cys]-Ttds-Lys(InDOTA)-NH2] (Ac-DW[Trp(5-Cl)]PE[dL]C[Aib]LIC-X14; linker 7-11 via mXylylene): the IC50 was < 10 nM. `CC[C@H](C)[C@@H]1NC(=O)[C@H](CC(C)C)NC(=O)C(C)(C)NC(=O)[C@@H](NC(=O)[C@@H](CC(C)C)NC(=O)[C@H](CCC(=O)O)NC(=O)[C@@H]2CCCN2C(=O)[C@H](Cc2cccc3ccccc23)NC(=O)[C@H](Cc2c[nH]c3ccccc23)NC(=O)[C@H](CC(=O)O)NC(C)=O)CSCc2cccc(c2)CSC[C@@H](C(=O)NCCCOCCOCCOCCCNC(=O)CCC(=O)N[C@@H](CCCCNC(=O)CN2CCN3CCN4CCN(CC2)CC(=O)[O][In]([O]C(=O)C3)[O]C(=O)C4)C(N)=O)NC1=O` [GIP-165, Ac-Asp-Trp-1Ni-Pro-Glu-leu-[Cys(3MeBn)-Aib-Leu-Ile-Cys]-Ttds-Lys(InDOTA)-NH2] (Ac-DW[1Nal]PE[dL]C[Aib]LIC-X14; linker 7-11 via mXylylene): the IC50 is < 10 nM. In the case of `CC[C@H](C)[C@@H]1NC(=O)[C@H](CC(C)C)NC(=O)C2(CCCCC2)NC(=O)[C@@H](NC(=O)[C@@H](CC(C)C)NC(=O)[C@H](CCC(=O)O)NC(=O)[C@@H]2CCCN2C(=O)[C@H](Cc2cccc3ccccc23)NC(=O)[C@H](Cc2c[nH]c3ccccc23)NC(=O)[C@H](CC(=O)O)NC(C)=O)CSCc2cccc(c2)CSC[C@@H](C(=O)NCCCOCCOCCOCCCNC(=O)CCC(=O)N[C@@H](CCCCNC(=O)CN2CCN3CCN4CCN(CC2)CC(=O)[O][In]([O]C(=O)C3)[O]C(=O)C4)C(N)=O)NC1=O` [GIP-166, Ac-Asp-Trp-1Ni-Pro-Glu-leu-[Cys(3MeBn)-Egz-Leu-Ile-Cys]-Ttds-Lys(InDOTA)-NH2] (Ac-DW[1Nal]PE[dL]C[Ac6c]LIC-X14; linker 7-11 via mXylylene), the IC50 was < 10 nM. Still for that read-out and setting: with `CC[C@H](C)[C@@H]1NC(=O)[C@H](CC(C)C)NC(=O)C2(CCOCC2)NC(=O)[C@@H](NC(=O)[C@@H](CC(C)C)NC(=O)[C@H](CCC(=O)O)NC(=O)[C@@H]2C[C@@H](O)CN2C(=O)[C@H](Cc2c[nH]c3ccc(Cl)cc23)NC(=O)[C@H](Cc2c[nH]c3ccccc23)NC(=O)CCC(=O)O)CSCc2cccc(n2)CSC[C@@H](C(=O)NC2CCN(CC(=O)N[C@@H](CCCCNC(=O)CN3CCN4CCN5CCN(CC3)CC(=O)[O][In]([O]C(=O)C4)[O]C(=O)C5)C(N)=O)CC2)NC1=O` [GIP-168, HO-Succinyl-Trp-5Clw-Hyp-Glu-leu-[Cys(2Lut)-Thp-Leu-Ile-Cys]-APAc-Lys(InDOTA)-NH2] (Suc-W[Trp(5-Cl)][Hyp]E[dL]C[Thp]LIC[X1]K(DOTA(In))-NH2; linker 6-10 via Pyridine(2,6-diCH2)) the figure was < 10 nM.

The assay is the same for the next values; noted with them: pIC50 Category, competition with 20 nM GIP-057, 4° C., 1 hour.
With `CC[C@H](C)[C@@H]1NC(=O)[C@H](CC(C)C)NC(=O)C(C)(C)NC(=O)[C@@H](NC(=O)[C@@H](CC(C)C)NC(=O)[C@H](CCC(=O)O)NC(=O)[C@@H]2CCCN2C(=O)[C@H](Cc2c[nH]c3ccc(Cl)cc23)NC(=O)[C@H](Cc2c[nH]c3ccccc23)NC(=O)[C@H](CC(=O)O)NC(=O)CCC(=O)NCCCOCCOCCOCCCNC(=O)CN2CCN3CCN4CCN(CC2)CC(=O)[O][Lu]([O]C(=O)C3)[O]C(=O)C4)CSCc2cccc(n2)CSCCNC1=O` [GIP-163, LuDOTA-Ttds-Asp-Trp-5Clw-Pro-Glu-leu-[Cys(2Lut)-Aib-Leu-Ile-AET]] ({X13-Suc}-DW[Trp(5-Cl)]PE[dL]C[Aib]LI; linker 7-C via X6), the IC50 was < 10 nM. On the same count and under the same terms, the result for `CC[C@H](C)[C@@H]1NC(=O)[C@H](CC(C)C)NC(=O)C2(CCOCC2)NC(=O)[C@@H](NC(=O)[C@@H](CC(C)C)NC(=O)[C@H](CCC(=O)O)NC(=O)[C@@H]2C[C@@H](O)CN2C(=O)[C@H](Cc2c[nH]c3ccc(Cl)cc23)NC(=O)[C@H](Cc2c[nH]c3ccccc23)NC(=O)CCC(=O)O)CSCc2cccc(n2)CSC[C@@H](C(=O)NC2CCN(CC(=O)N[C@@H](CCCCNC(=O)CN3CCN4CCN5CCN(CC3)CC(=O)[O][Lu]([O]C(=O)C4)[O]C(=O)C5)C(N)=O)CC2)NC1=O` [GIP-170, HO-Succinyl-Trp-5Clw-Hyp-Glu-leu-[Cys(2Lut)-Thp-Leu-Ile-Cys]-APAc-Lys(LuDOTA)-NH2] (Suc-W[Trp(5-Cl)][Hyp]E[dL]C[Thp]LIC[X1]K(DOTA(Lu))-NH2; linker 6-10 via Pyridine(2,6-diCH2)) reads < 10 nM; that for `CC[C@H](C)[C@@H]1NC(=O)[C@H](CC(C)C)NC(=O)C2(CCN(C(=O)CN3CCN4CCN5CCN(CC3)CC(=O)[O][Lu]([O]C(=O)C5)[O]C(=O)C4)CC2)NC(=O)[C@@H](NC(=O)[C@@H](CC(C)C)NC(=O)[C@H](CCC(=O)O)NC(=O)[C@@H]2C[C@@H](O)CN2C(=O)[C@H](Cc2c[nH]c3ccc(Cl)cc23)NC(=O)[C@H](Cc2c[nH]c3ccccc23)NC(=O)CCC(=O)O)CSCc2cccc(n2)CSCCNC1=O` [GIP-171, HO-Succinyl-Trp-5Clw-Hyp-Glu-leu-[Cys(2Lut)-Apc(LuDOTA)-Leu-Ile-AET]] (Suc-W[Trp(5-Cl)][Hyp]E[dL]C[Api](DOTA(Lu))LI; linker 6-C via X6), < 10 nM; that for `CC[C@H](C)[C@@H]1NC(=O)[C@H](CC(C)C)NC(=O)C(C)(C)NC(=O)[C@@H](NC(=O)[C@@H](CC(C)C)NC(=O)[C@H](CCC(=O)O)NC(=O)[C@@H]2CCCN2C(=O)[C@H](Cc2cccc3ccccc23)NC(=O)[C@H](Cc2c[nH]c3ccccc23)NC(=O)[C@H](CC(=O)O)NC(C)=O)CSCc2cccc(c2)CSC[C@@H](C(=O)NCCCOCCOCCOCCCNC(=O)CCC(=O)N[C@@H](CCCCNC(=O)CN2CCN3CCN4CCN(CC2)CC(=O)[O][Lu]([O]C(=O)C3)[O]C(=O)C4)C(N)=O)NC1=O` [GIP-172, Ac-Asp-Trp-1Ni-Pro-Glu-leu-[Cys(3MeBn)-Aib-Leu-Ile-Cys]-Ttds-Lys(LuDOTA)-NH2] (Ac-DW[1Nal]PE[dL]C[Aib]LIC-X16; linker 7-11 via mXylylene), 10 to 79.4 nM. On the same count and under the same terms, with `CC[C@H](C)[C@@H]1NC(=O)[C@H](CC(C)C)NC(=O)C2(CCCCC2)NC(=O)[C@@H](NC(=O)[C@@H](CC(C)C)NC(=O)[C@H](CCC(=O)O)NC(=O)[C@@H]2CCCN2C(=O)[C@H](Cc2cccc3ccccc23)NC(=O)[C@H](Cc2c[nH]c3ccccc23)NC(=O)[C@H](CC(=O)O)NC(C)=O)CSCc2cccc(c2)CSC[C@@H](C(=O)NCCCOCCOCCOCCCNC(=O)CCC(=O)N[C@@H](CCCCNC(=O)CN2CCN3CCN4CCN(CC2)CC(=O)[O][Lu]([O]C(=O)C3)[O]C(=O)C4)C(N)=O)NC1=O` [GIP-173, Ac-Asp-Trp-1Ni-Pro-Glu-leu-[Cys(3MeBn)-Egz-Leu-Ile-Cys]-Ttds-Lys(LuDOTA)-NH2] (Ac-DW[1Nal]PE[dL]C[Ac6c]LIC-X16; linker 7-11 via mXylylene) the figure was 10 to 79.4 nM.
